For series [1], the system named is C. sporogenes ATCC 25762 linoleate isomerase. Kind of series: C. sporogenes isomerase activity and stability in extracts with additives. In kind it is biochemical, Clostridium sporogenes. The conditions noted are these: for effect of chelating agents on enzyme activity and stability: crude extracts, 1 mM; for effect on the stability of the isomerase: PMSF 0.1-1.0 mM, iodoacetamide 1 mM. As to the method:
Temperature sensitivity of the isomerase in crude extracts was tested at 4° C., room temperature (˜25° C.) and 37° C. […] The optimum pH was monitored by adjusting the pH from 5.0 to 9.0 using the 0.1M Tris buffer containing 10 mM NaCl, 1 mM DTT and 40 ppm linoleic acid.
The concentration of linoleic acid was tested from 0 to 100 ppm (FIG. 26).
Two different media, BHI and MRS, were tested. […] Protease inhibitors, PMSF (0.1-1.0 mM), iodoacetamide (1 mM) and pepstatin A were tested for their effects on the stability of the isomerase.
It has been reported that solubilization in the presence of lysophosphatidylcholine (LPC) allows higher detergent concentrations to be used, thus allowing more complete membrane protein solubilization. CaCl2 can activate enzymes, such as some nucleases.

Series [2] deals with linoleate isomerase from Clostridium sporogenes. As to the kind of experiment: C. sporogenes linoleate isomerase kinetic assay, absorbence at 234 nm, partially purified enzyme. The class given is biochemical. The conditions noted are these: for Activity / Activity (%): cofactor 50 μM, DTT 1 mM; for Activity (%): no cofactor = 100. As to the method: In this experiment, all kinetic experiments were performed in a quartz cuvette (1-cm light-path with a magnetic stirrer) at room temperature using a HP 8452A diode array spectrophotometer. The cuvette was filled with 1 ml of incubation buffer containing 50 μg protein, 0.1 M potassium phosphate, pH7.5, 10 mM NaCl and 10% 1,2-propane diol. The isomerization was initiated by adding a small aliquot (1-2 μl) of freshly diluted substrate-stock (˜[…] linoleic acid) in 1,2-propane diol at 50 seconds. The increase in absorbence at 234 nm was monitored and recorded. […] The amount of product formed was calculated based on a molar extinction coefficient of 24,000.

Series [3] addresses P. acnes ATCC 6919 linoleate isomerase (Cutibacterium acnes, UniProt Q6A8X5). The class given is biochemical, Propionibacterium acnes. The settings on record: for inhibition of isomerase activity: EDTA 5 mM, 1,10-phenanthroline 1 mM, p-chloromercuribenzoate 5 μM, N-ethylmaleimide 100 μM. As to the method: Formation of CLA was determined by measuring the absorbence at 234 nm. […] Generally, the isomerase was assayed using an endpoint assay after 30 to 60 minutes incubation at room temperature. FIG. 18 (time course assay at different linoleic acid levels) and FIG. 19 (end point assay at different linoleic acid levels) show the effect of increasing substrate concentration on formation of […].

Series [4] has as its system B. fibrisolvens A-38 linoleate isomerase. The conditions noted are these: reported by Kepler and Tove; cited from earlier work.
A short description of series [5]: Linoleate isomerase characterization (Table 7B), enzymes compared on linoleic acid. In kind it is biochemical. The conditions noted are these: for CLA Isomer: CLA isomer produced from linoleic acid; for Optimal pH / Km / Vmax: substrate linoleic acid. As to the method:
Table 7B is a summary of the kinetic data and characterization of linoleate isomerases from P. acnes (crude extract prior to DEAE purification as in Example 11, except that the Vmax was determined using enzyme purified through the chromatofocusing step as in Example 11), L. reuteri (enzyme purified through the gel filtration step as in Example 3), and C. sporogenes (enzyme purified through the gel filtration step as in Example 17), all isolated by the present inventors, and the B. fibrisolvens A-38 linoleate isomerase (crude extract; Kepler and Tove, 1967, J. Biochem. 242:5686-5692). The substrate in these experiments was linoleic acid.

[6] abbreviates: isomerization of (cis, cis, cis, cis)-6, 9, 12, 15 octadecatetraenoic acid 20 PPM.
[7] abbreviates: isomerization of linoleic acid 10 PPM.

Read-outs that look alike come from different tables or passages of the source.

Take `[Ca+2].[Cl-].[Cl-]` [CaCl2]: the “effect on enzyme activity” value in series [1] (Tris and phosphate buffer systems) is “decreased the enzyme activity”.

On to `NC(=O)C1=CN([C@@H]2O[C@H](COP(=O)(O)OP(=O)(O)OC[C@H]3O[C@@H](n4cnc5c(N)ncnc54)[C@H](O)[C@@H]3O)[C@@H](O)[C@H]2O)C=CC1` [NADH], for which, in series [2] (setting [6]), the “Activity” value came to 6.4 nmol/min. Moreover, the “Activity (%)” value is given as 103% in series [2] (setting [6]) and 99% in series [2] (setting [7]). Besides, the “effect of possible cofactors on isomerase activity” value (“effect of possible cofactors” for short) in series [3] (60 minute assays) is recorded as “No significant effect”.

For `O=C(O)CN(CCN(CC(=O)O)CC(=O)O)CC(=O)O` [EDTA], the “effect of chelating agents on enzyme activity and stability” value in series [1] is given as “negative effect”.

Turning to `N[C@@H](CCC(=O)N[C@@H](CS)C(=O)NCC(=O)O)C(=O)O` [glutathione], in series [3], the “effect of possible cofactors” value is “No significant effect”.

Take `NC(=O)C1=CN([C@@H]2O[C@H](COP(=O)(O)OP(=O)(O)OC[C@H]3O[C@@H](n4cnc5c(N)ncnc54)[C@H](OP(=O)(O)O)[C@@H]3O)[C@@H](O)[C@H]2O)C=CC1` [NADPH]: the “Activity” value in series [2] (setting [6]) turned out to be 6.3 nmol/min; in series [2] (setting [7]), 11.1 ± 1.5 nmol/min. Also, the “Activity (%)” value was determined as 102% in series [2] (setting [6]) and 105% in series [2] (setting [7]). Also, in series [3] (60 minute assays), the “effect of possible cofactors” value is on record as “No significant effect”.

Take `NC(=O)c1ccc[n+]([C@@H]2O[C@H](COP(=O)([O-])OP(=O)(O)OC[C@H]3O[C@@H](n4cnc5c(N)ncnc54)[C@H](OP(=O)(O)O)[C@@H]3O)[C@@H](O)[C@H]2O)c1` [NADP]: in series [3] (60 minute assays), the “effect of possible cofactors” value is on record as “No significant effect”.

As to `NC(=O)CI` [iodoacetamide], the “effect on the stability of the isomerase” value in series [1] is listed as “None provided measurable benefit”.

Consider `CCCCCCCC/C=C\CCCCCCCC(=O)O` [oleic acid, (cis)-9 octadecenoic acid], for which the type of inhibition entry in series [2] (0, 24 and 48 μM oleic acid, varied linoleic acid, Lineweaver-Burke and Hanes-Woolf plots) is reported as “uncompetitive inhibitor”; in series [4], “competitive inhibition”. Besides, in series [2] (70 μM oleic acid (20 PPM)), the “isomerase activity in the presence of inhibitor” value is reported as “almost completely lost”. The “RELATIVE ACTIVITY %” value is recorded as 25% in series [2] (compound added at 35 μM, substrate LA 35 μM, pH 7.5, LA alone = 100%) and 0% in series [2] (compound as substrate at 10 PPM, activity with linoleic acid set as 100%). Besides, the inhibition constant (Ki) in series [2] (inhibition of linoleic acid isomerization, calculated from secondary plots, read-out: inhibition constants (Ki)) is 23.8 µM.

In the case of `Nc1ncnc2c1ncn2[C@@H]1O[C@H](COP(=O)(O)OP(=O)(O)O)[C@@H](O)[C@H]1O` [ADP], in series [2] (setting [6]), the “Activity” value is given as 5.7 nmol/min and the “Activity (%)” value is 92%. Besides, in series [2] (setting [7]), the “Activity” value is 11.1 ± 1.7 nmol/min and the “Activity (%)” value was found to be 105%. The “effect of possible cofactors” value in series [3] (60 minute assays) is recorded as “No significant effect”.

Consider pepstatin A, for which, in series [1], the “effect on the stability of the isomerase” value is given as “None provided measurable benefit”.

As for `c1cnc2c(c1)ccc1cccnc12` [1,10-phenanthroline], the “inhibition of isomerase activity” value in series [3] was “not inhibited”. The “effect of chelating agents on enzyme activity and stability” value in series [1] is on record as “protected”.

On to `NC(=O)c1ccc[n+]([C@@H]2O[C@H](COP(=O)([O-])OP(=O)(O)OC[C@H]3O[C@@H](n4cnc5c(N)ncnc54)[C@H](O)[C@@H]3O)[C@@H](O)[C@H]2O)c1` [NAD], for which the results for the “Activity” value in series [2] (setting [6]) and in series [2] (setting [7]) were 5.6 nmol/min and 10.8 ± 1.3 nmol/min, respectively. Besides, the “Activity (%)” value came to 90% in series [2] (setting [6]) and 102% in series [2] (setting [7]). Besides, the “effect of possible cofactors” value in series [3] (60 minute assays) was “No significant effect”.

Regarding `CCN1C(=O)C=CC1=O` [N-ethylmaleimide], the “inhibition of isomerase activity” value in series [3] is “not inhibited”.

On to `[Mg]` [magnesium], for which, in series [3] (60 minute assays), the “effect of possible cofactors” value is reported as “no effect”.

As for `O=S(=O)(F)Cc1ccccc1` [PMSF], in series [1], the “effect on the stability of the isomerase” value is “None provided measurable benefit”.

Regarding `Nc1ncnc2c1ncn2[C@@H]1O[C@H](COP(=O)(O)OP(=O)(O)OP(=O)(O)O)[C@@H](O)[C@H]1O` [ATP], in series [2] (setting [6]), the “Activity” value was 6.1 nmol/min and the “Activity (%)” value worked out at 98%. In series [2] (setting [7]), the “Activity” value stood at 11.1 ± 1.4 nmol/min and the “Activity (%)” value worked out at 105%. Moreover, the “effect of possible cofactors” value in series [3] (60 minute assays) is given as “No significant effect”.

`O=C(O)c1cc[c]([Hg][Cl])cc1` [p-chloromercuribenzoate]: the “inhibition of isomerase activity” value in series [3] is given as “not inhibited”.

`[Ca]` [Calcium]: in series [3] (60 minute assays), the “effect of possible cofactors” value is listed as “no effect”.

Consider `Cc1cc2nc3c(=O)[nH]c(=O)nc-3n(C[C@H](O)[C@H](O)[C@H](O)COP(=O)(O)OP(=O)(O)OC[C@H]3O[C@@H](n4cnc5c(N)ncnc54)[C@H](O)[C@@H]3O)c2cc1C` [FAD], for which the “effect of possible cofactors” value in series [3] (60 minute assays) is “No significant effect”.

On to `Cc1cc2nc3c(=O)[nH]c(=O)nc-3n(C[C@H](O)[C@H](O)[C@H](O)COP(=O)(O)O)c2cc1C` [FMN], for which the “effect of possible cofactors” value in series [3] (60 minute assays) is “No significant effect”.

B1: L. reuteri: (cis, trans)-9,11-linoleate isomerase from Lactobacillus reuteri PYR8, SEQ ID NO:18 (protein, listed as Lactobacillus reuteri)
chain: MYYSNGNYEAFARPKKPAGVDKKHAYIVGGGLAGLSAAVFLIRDAQMPGENIHILEELPVAGGSLDGEDRPGIGFVTRGGREMENHFECMWDMYRSIPSLEIPGASYLDEYYWLDKEDPNSSNCRLTYKRGNEVPSDGKYGLSKKAIKELTKLIMTPEEKLGRETIGEYFSDDFFESNFWIYWSTMFAFERWHSLAEMRRYMMRFIHHIDGLPDFTALKFNKYNQYESMTKPLLAYLKDHHVKIEYDTQVKNVIVDTHGRQKHAKRILLTQAGKDKVVELTDNDLVFVTNGSITESSTYGSHHQAARPTQALGGSWKLWENLARQSADFGHPDVFCKNLPGRSWFISATATVKNPQVEPYIERLTKRDLHDGKVNTGGIITVTDSNWMLSWTIHRQPHFKKQKKNETIVWIYGLYSNTKGNYIKKRIVDCTGEEITKEWLSIWGFQKPLIDDLAKESSINTVPVYMPFITSYFMPRVKGDRPDVVPEGSANLAFIGNFAESPSRDTVFTTEYSVRTAMEAVYTLLDVDRGVPEVFNSIYDLRELMRAMYYMNDKKPLKDMDLPIPKIVEKPLLKKLQGTWIGELMEQQHLL
With B1, in series [5], the “CLA Isomer” value is reported as 9,11 and the “Optimal pH” value was determined as 7.5. Further, in series [5] (purified enzyme), the Km amounted to 8.1 µM and the Vmax is 880^5 nmol/min/mg.

B2: P. acnes: (trans, cis)-10,12-linoleate isomerase from Propionibacterium acnes ATCC 6919, SEQ ID NO:61 (protein)
chain: MSISKDSRIAIIGAGPAGLAAGMYLEQAGFHDYTILERTDHVGGKCHSPNYHGRRYEMGAIMGVPSYDTIQEIMDRTGDKVDGPKLRREFLHEDGEIYVPEKDPVRGPQVMAAVQKLGQLLATKYQGYDANGHYNKVHEDLMLPFDEFLALNGCEAARDLWINPFTAFGYGHFDNVPAAYVLKYLDFVTMMSFAKGDLWTWADGTQAMFEHLNATLEHPAERNVDITRITREDGKVHIHTTDWDRESDVLVLTVPLEKFLDYSDADDDEREYFSKIIHQQYMVDACLVKEYPTISGYVPDNMRPERLGHVMVYYHRWADDPHQIITTYLLRNHPDYADKTQEECRQMVLDDMETFGHPVEKIIEEQTWYYFPHVSSEDYKAGWYEKVEGMQGRRNTFYAGEIMSFGNFDEVCHYSKDLVTRFFV
modifications: Propionibacterium acnes
With B2, in series [5], the “Enzyme Solubility” value is listed as “S”, the “CLA Isomer” value is recorded as 10,12 and the “Optimal pH” value stood at 7.3. Further, the Km in series [5] (crude extract) amounted to 17.2 µM. Besides, the Vmax in series [5] (purified enzyme) was 478^5 nmol/min/mg.

The values above are taken from US20050003383A1, “Linoleate isomerase” (Arkion Life Sciences LLC d/b/a Bio-Technical Resources …, priority 1999, published 2005).
